Active and inactive are the calls of the source. How the calls were made is not given here.
Tested on: GENE-TOX genotoxicity assays, various organisms and cells
Experiment: GENE-TOX mutagenicity studies
Details: for call: Assay Type: In vivo carcinogenicity studies
[1] = Species/Cell Type: Saccharomyces cerevisiae, Assay Type: Mitotic recombination or gene conversion, Assay Code: YEH+, Evaluation Type: Evaluation A (Pre-1980)
[2] = Species/Cell Type: Salmonella typhimurium, Assay Type: Forward and reverse gene mutation, host-mediated assay, Assay Code: HMA+, Evaluation Type: Evaluation A (Pre-1980)
[3] = Species/Cell Type: Bacillus subtilis (H17 vs M45), Assay Type: Rec-assay, spot test, DNA effects (bacterial DNA repair), Assay Code: REW-, Evaluation Type: Evaluation A (Pre-1980)
[4] = Species/Cell Type: Salmonella typhimurium (one or more of the five standard strains: TA98, TA100, TA1535, TA1537, and TA1538), Assay Type: Histidine reverse gene mutation, Ames assay, Assay Code: SALT, Evaluation Type: Evaluation A (Pre-1980)
[5] = Species/Cell Type: Mouse, Sex: Male, Assay Type: Sperm morphology, Assay Code: SPI+, Evaluation Type: Evaluation A (Pre-1980)
[6] = Species/Cell Type: Bacillus subtilis (H17 vs M45), Assay Type: Rec-assay, spot test, DNA effects (bacterial DNA repair), Assay Code: REWT, Evaluation Type: Evaluation A (Pre-1980)
[7] = Species/Cell Type: Nonhuman, Assay Code: CCG+L, Evaluation Type: Evaluation A (Pre-1980)

In the case of `Nc1ccc(-c2ccccc2)cc1`, the mutagenic call (Species/Cell Type: Escherichia coli polA (W3110 vs P3478), Assay Type: Rec-assay, DNA effects (bacterial DNA repair), Assay Code: RE2+, Evaluation Type: Evaluation A (Pre-1980)) is reported as “active; positive”, the mutagenic call (Species/Cell Type: Escherichia coli polA (W3119 vs P3478), Assay Type: Rec-assay, DNA effects (bacterial DNA repair), Assay Code: RE1T, Evaluation Type: Evaluation A (Pre-1980)) is reported as “no conclusion” and the mutagenic call (Species/Cell Type: Fischer rat embryo (RLV/1706) cells, Assay Type: Cell transformation, viral enhanced, Assay Code: CTR+, Evaluation Type: Evaluation A (Pre-1980)) is reported as “active; positive”. The mutagenic call (Species/Cell Type: Human diploid fibroblasts, Assay Type: Unscheduled DNA synthesis (UDS) in vitro, DNA effects, Assay Code: UDH-, Evaluation Type: Evaluation A (Pre-1980)) was “inactive; negative”, the mutagenic call (Species/Cell Type: Mammalian polychromatic erythrocytes, Assay Type: Micronucleus test, chromosome aberrations, Assay Code: MNTT, Evaluation Type: Evaluation A (Pre-1980)) was “no conclusion” and the mutagenic call (Species/Cell Type: Mouse embryo (AKR/ME) cells, Assay Type: Cell transformation, Assay Code: CTK+, Evaluation Type: Evaluation A (Pre-1980)) was “active; positive”. The call (Species/Cell Type: Nonhuman, Assay Code: CCG+, Evaluation Type: Evaluation A (Pre-1980)) was “active; positive”, the mutagenic call (Species/Cell Type: Nonhuman, Assay Type: Sister-chromatid exchange (SCE) in vivo, Assay Code: SC3+, Evaluation Type: Evaluation B (Post-1980)) was “active; positive” and the mutagenic call (Species/Cell Type: Rat primary hepatocytes, Assay Type: Unscheduled DNA synthesis (UDS) in vitro, DNA effects, Assay Code: UDP+, Evaluation Type: Evaluation A (Pre-1980)) was “active; positive”. The mutagenic call [1] was “active; positive”, the mutagenic call (Species/Cell Type: Salmonella typhimurium (one or more of the five standard strains: TA98, TA100, TA1535, TA1537, and TA1538), Assay Type: Histidine reverse gene mutation, Ames assay, Assay Code: SAL+*, Activation: With metabolic activation, Evaluation Type: Evaluation A (Pre-1980)) was “active; positive” and the mutagenic call (Species/Cell Type: Salmonella typhimurium, Assay Type: Forward and reverse gene mutation, body fluid assay, Assay Code: BFU+, Evaluation Type: Evaluation A (Pre-1980)) was “active; positive”. For the same compound, the mutagenic call [2] was “active; positive” and the mutagenic call (Species/Cell Type: Syrian hamster embryo (SHE) cells, Assay Type: Cell transformation, clonal assay, Assay Code: CTC+, Evaluation Type: Evaluation A (Pre-1980)) was “active; positive”.
With `COc1cc2c(c3oc(=O)c4c(c13)CCOC4=O)[C@@H]1CCO[C@@H]1O2` the mutagenic call [3] was “inactive; negative”, the mutagenic call (Species/Cell Type: Chinese hamster lung (V79) cells, Assay Type: Forward gene mutation at the HPRT or ouabain locus, Assay Code: V79-*, Activation: With metabolic activation, Evaluation Type: Evaluation A (Pre-1980)) was “inactive; negative” and the mutagenic call (Species/Cell Type: Human diploid fibroblasts, Assay Type: Unscheduled DNA synthesis (UDS) in vitro, DNA effects, Assay Code: UDH-*, Activation: With metabolic activation, Evaluation Type: Evaluation A (Pre-1980)) was “inactive; negative”. The mutagenic call (Species/Cell Type: Nonhuman, Assay Type: Sister-chromatid exchange (SCE) in vitro, Assay Code: SC2+D*, Activation: With metabolic activation, Dose Response: With dose response, Evaluation Type: Evaluation B (Post-1980)) was “active; positive”, the mutagenic call (Species/Cell Type: Rat primary hepatocytes, Assay Type: Unscheduled DNA synthesis (UDS) in vitro, DNA effects, Assay Code: UDP-, Evaluation Type: Evaluation A (Pre-1980)) was “inactive; negative” and the mutagenic call [4] was “no conclusion”.
`CC1(C)N=C(N)N=C(N)N1OCCCOc1cc(Cl)c(Cl)cc1Cl` was tested, and the mutagenic call [4] was “no conclusion”.
For `CC(C)NCC(O)c1ccc(NS(C)(=O)=O)cc1` (stereo not given), the mutagenic call (Species/Cell Type: Mammalian polychromatic erythrocytes, Assay Type: Micronucleus test, chromosome aberrations, Assay Code: MNTT, Evaluation Type: Evaluation B (Post-1980)) was “no conclusion”.
In the case of `CN(N=O)C(=O)Nc1ccccc1`, the mutagenic call (Species/Cell Type: Nonhuman, Assay Type: Sister-chromatid exchange (SCE) in vitro, Assay Code: SC2+D, Dose Response: With dose response, Evaluation Type: Evaluation B (Post-1980)) is reported as “active; positive”.
With `CC(=O)Nc1nc(-c2cc([N+](=O)[O-])c[nH]2)cs1` the mutagenic call [4] was “no conclusion”.
`C[n+]1c2cc(N)ccc2cc2ccc(N)cc21` (tested in a mixture with another compound) was tested, and the mutagenic call (Species/Cell Type: Aspergillus nidulans, Assay Type: Forward gene mutation, Assay Code: ASF+, Evaluation Type: Evaluation A (Pre-1980)) was “active; positive”, the mutagenic call (Species/Cell Type: Mammalian cell culture, nonhuman, Assay Type: Micronucleus test in vitro, chromosome aberrations, Assay Code: MN&+U, Dose Response: Unconfirmed positive response, Evaluation Type: Evaluation A (Pre-1980)) was “active; positive” and the mutagenic call (Species/Cell Type: Mammalian oocytes or early embryo, Assay Type: Chromosome aberrations in vivo, Assay Code: CYO-, Evaluation Type: Evaluation A (Pre-1980)) was “inactive; negative”. The mutagenic call (Species/Cell Type: Mammalian polychromatic erythrocytes, Assay Type: Micronucleus test, chromosome aberrations, Assay Code: MNT+U, Dose Response: Unconfirmed positive response, Evaluation Type: Evaluation A (Pre-1980)) was “active; positive”, the mutagenic call [5] was “active; positive” and the mutagenic call (Species/Cell Type: Saccharomyces cerevisiae, Assay Type: Mitotic recombination or gene conversion, Assay Code: YECT, Evaluation Type: Evaluation A (Pre-1980)) was “no conclusion”. The mutagenic call [1] was “active; positive” and the mutagenic call (Species/Cell Type: Salmonella typhimurium, Escherichia coli, Serratia marcesens, Assay Type: Forward and reverse gene mutation, host-mediated assay, Assay Code: HMN-, Evaluation Type: Evaluation A (Pre-1980)) was “inactive; negative”.
`CCCCNC(=O)N(CCCC)c1nc(-c2ccccc2)cs1` was tested, and the mutagenic call [2] was “active; positive”.
With `[Cl-].[Cl-].[Cl-].[Cl-].[Cl-].[Cl-].[Mo]` the mutagenic call (Species/Cell Type: Syrian hamster embryo (SA7/SHE) cells, Assay Type: Cell transformation, viral enhanced, Assay Code: CT7+, Evaluation Type: Evaluation A (Pre-1980)) was “active; positive”.
With `CC(C)NCC(Cl)c1ccc2ccccc2c1` (stereo not given) the mutagenic call [5] was “active; positive”.
`O=C1CN=C(c2ccccc2Cl)c2cc([N+](=O)[O-])ccc2N1` was tested, and the mutagenic call (Species/Cell Type: Salmonella typhimurium, Assay Type: Forward and reverse gene mutation, body fluid assay, Assay Code: BFU-, Evaluation Type: Evaluation A (Pre-1980)) was “inactive; negative” and the mutagenic call (Species/Cell Type: Salmonella typhimurium, Assay Type: Forward and reverse gene mutation, host-mediated assay, Assay Code: HMA-, Evaluation Type: Evaluation A (Pre-1980)) was “inactive; negative”.
With `O=Nc1c([O-])ccc2cc(S(=O)(=O)[O-])ccc12.O=Nc1c([O-])ccc2cc(S(=O)(=O)[O-])ccc12.O=Nc1c([O-])ccc2cc(S(=O)(=O)[O-])ccc12.[Fe+3].[Na+].[Na+].[Na+]` the mutagenic call [6] was “no conclusion”.
In the case of `C/C=C/c1ccccc1`, the mutagenic call (Species/Cell Type: Human lymphocytes, Assay Type: Sister-chromatid exchange (SCE) in vitro, Assay Code: SCL+D, Dose Response: With dose response, Evaluation Type: Evaluation B (Post-1980)) is reported as “active; positive” and the mutagenic call (Species/Cell Type: Human, Assay Type: Sister-chromatid exchange (SCE) in vitro, Assay Code: SC1+D, Dose Response: With dose response, Evaluation Type: Evaluation B (Post-1980)) is reported as “active; positive”.
With `O=S(=O)(O)c1ccc(N=Nc2c(O)ccc3cc(S(=O)(=O)O)ccc23)cc1` the mutagenic call [6] was “no conclusion”, the mutagenic call (Species/Cell Type: Bacillus subtilis (H17 vs M45T), Assay Type: Rec-assay, spot test, DNA effects (bacterial DNA repair), Assay Code: REXT, Evaluation Type: Evaluation A (Pre-1980)) was “no conclusion” and the call (Species/Cell Type: Nonhuman, Assay Code: CCG-, Evaluation Type: Evaluation A (Pre-1980)) was “inactive; negative”. For the same compound, the mutagenic call (Species/Cell Type: Nonhuman, Assay Type: Sister-chromatid exchange (SCE) in vitro, Assay Code: SC2T, Evaluation Type: Evaluation A (Pre-1980)) was “no conclusion”, the mutagenic call (Species/Cell Type: Saccharomyces cerevisiae, Assay Type: Mitotic recombination or gene conversion, Assay Code: YEC-, Evaluation Type: Evaluation A (Pre-1980)) was “inactive; negative” and the mutagenic call (Species/Cell Type: Salmonella typhimurium (one or more of the five standard strains: TA98, TA100, TA1535, TA1537, and TA1538), Assay Type: Histidine reverse gene mutation, Ames assay, Assay Code: SAL-, Evaluation Type: Evaluation A (Pre-1980)) was “inactive; negative”.
`Oc1cc2cccc3ccc4cc5ccccc5c1c4c32` was tested, and the mutagenic call (Species/Cell Type: Chinese hamster lung (V79) cells, Assay Type: Forward gene mutation at the HPRT or ouabain locus, Assay Code: V79-, Evaluation Type: Evaluation A (Pre-1980)) was “inactive; negative”, the call [7] was “active; positive” and the mutagenic call [4] was “no conclusion”.
In the case of `[Cl][Mo]([Cl])([Cl])([Cl])[Cl]`, the mutagenic call [3] is reported as “inactive; negative”.
In the case of `Nc1c(Cl)cc(-c2cc(Cl)c(N)c(Cl)c2)cc1Cl`, the mutagenic call (Species/Cell Type: Human diploid fibroblasts, Assay Type: Unscheduled DNA synthesis (UDS) in vitro, DNA effects, Assay Code: UDH+*, Activation: With metabolic activation, Evaluation Type: Evaluation A (Pre-1980)) is reported as “active; positive”.
With `Cc1c2ccccc2c(CO)c2c1ccc1ccccc12` the mutagenic call (Species/Cell Type: Chinese hamster lung (V79) cells, Assay Type: Forward gene mutation at the HPRT or ouabain locus, Assay Code: V79+, Evaluation Type: Evaluation A (Pre-1980)) was “active; positive” and the call [7] was “active; positive”.
With `O=C(NO)NO` the mutagenic call (Species/Cell Type: Drosophila melanogaster, Assay Type: Aneuploidy, sex chromosome gain, chromosome aberrations, Assay Code: DAGT, Evaluation Type: Evaluation A (Pre-1980)) was “no conclusion”, the mutagenic call (Species/Cell Type: Drosophila melanogaster, Assay Type: Aneuploidy, whole sex chromosome loss, chromosome aberrations, Assay Code: DAC-M, Evaluation Type: Evaluation A (Pre-1980)) was “inactive; negative” and the mutagenic call (Species/Cell Type: Drosophila melanogaster, Assay Type: Sex-linked recessive lethal gene mutation, Assay Code: SRLT, Evaluation Type: Evaluation A (Pre-1980)) was “no conclusion”.
For `CCCCOC(=O)C=[N+]=[N-]`, the mutagenic call (Species/Cell Type: Arabidopsis species, Assay Type: Gene mutation, Assay Code: ARM+, Evaluation Type: Evaluation A (Pre-1980)) was “active; positive”.
In the case of `O=c1[nH]cc(Cl)c(=O)[nH]1`, the mutagenic call (Species/Cell Type: Mouse, Sex: Male, Assay Type: Specific locus test, gene mutation, Assay Code: SLTT, Evaluation Type: Evaluation A (Pre-1980)) is reported as “no conclusion”.
With `COC[CH2][Hg][Cl]` the mutagenic call (Species/Cell Type: Drosophila melanogaster, Assay Type: Aneuploidy, sex chromosome gain, chromosome aberrations, Assay Code: DAG-F-M, Evaluation Type: Evaluation A (Pre-1980)) was “inactive; negative” and the mutagenic call (Species/Cell Type: Drosophila melanogaster, Assay Type: Aneuploidy, whole sex chromosome loss, chromosome aberrations, Assay Code: DAC-M-F, Evaluation Type: Evaluation A (Pre-1980)) was “inactive; negative”.
